Data taken from patent US10918648B2, “Estrogen receptor modulator combinations” (The Regents of the University of California, priority 2016, dated 2021).

Columns and labels:
estrogen receptor = biological target: T1, estrogen receptor (Homo sapiens, UniProt P03372); test: Specific [3H]estradiol-17β binding by MCF-7 parental cells; details: 2 nM [3H]estradiol-17β, compounds at 10 μM, FIG. 5A
T1 construct: endogenous in cells; host or cells: MCF-7 parental (MCF-7/CON) human breast cancer cells
T1 sequence (P03372 1-595): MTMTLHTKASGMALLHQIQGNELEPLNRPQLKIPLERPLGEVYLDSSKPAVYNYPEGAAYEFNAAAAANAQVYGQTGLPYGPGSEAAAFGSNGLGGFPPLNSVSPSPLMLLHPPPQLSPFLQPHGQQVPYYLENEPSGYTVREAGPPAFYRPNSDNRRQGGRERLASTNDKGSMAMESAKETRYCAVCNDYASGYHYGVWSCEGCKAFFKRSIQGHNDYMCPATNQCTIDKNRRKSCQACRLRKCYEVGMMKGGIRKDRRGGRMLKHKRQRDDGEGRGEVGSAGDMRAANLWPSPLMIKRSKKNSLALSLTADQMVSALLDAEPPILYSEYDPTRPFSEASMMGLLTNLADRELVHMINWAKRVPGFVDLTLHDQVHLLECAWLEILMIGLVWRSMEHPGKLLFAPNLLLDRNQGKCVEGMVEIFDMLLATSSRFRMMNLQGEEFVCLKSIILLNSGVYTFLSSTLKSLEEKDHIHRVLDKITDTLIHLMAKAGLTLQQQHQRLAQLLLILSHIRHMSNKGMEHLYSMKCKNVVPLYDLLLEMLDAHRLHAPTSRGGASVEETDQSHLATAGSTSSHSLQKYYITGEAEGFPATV
Protocol: Specific estradiol binding: Specific estradiol-17β (E2) binding was assessed in MCF-7 parental breast cancer cells as before (14-16). […] MCF-7 cells were incubated with 2 nM [^3H]estradiol-17β and antiestrogens (all at 10 μM concentration; numbers Si to S15), with ICI 182,780 (ICI; fulvestrant) used as a control (n=3). Compounds S1-S14 are test compounds different from the exemplified compounds described herein.

cyclin D1 = test: Cyclin D1 expression, Western immunoblot in MCF-7 cells; assay type: cell-based, human; details: 24 hrs, 10% FBS, 1 μM and 10 μM, FIG. 7B
Protocol: FIG. 7B. […] Western immunoblot of cyclin D1 after treating MCF-7 cells 24 hrs with 10% FBS and 1 μM and 10 μM doses of JD105, JD128 and JD140. Refer to FIG. S4 methods and previous reports (20).
Next, SERD compounds developed in our laboratory were tested for a capability to suppress the expression of cyclin D1 in ERα-positive human breast cancer cells MCF-7 which were used to validate the activity of other hormonal agents previously (see 20) (FIG. 7B).
(§1) Gel electrophoresis and immunoblotting: Breast and lung tumor cells were treated in phenol-red free RPMI1640/DMEM with 5% DCC-FBS (26). After selected treatments cells were homogenized in the presence of protease inhibitors using RIPA buffer (Thermo Scientific). All procedures were performed in ice, lysates were centrifuged and protein concentration quantified in the supernatants using a Thermo Scientific® BCA protein assay kit. Approximately 20-60 μg of total protein were heated in the presence of Laemmli sample buffer (Biorad) to 100° C. for 10 min and loaded it on a gradient TGX gel 4-15% (Biorad). Gels were transferred to PVDF membranes for immunoblotting. Membranes were blocked either with 5% milk in Tris Buffer Saline with 0.1% Tween 20 or protein-free blocking solution (Thermo Scientific). […]

cleaved PARP = test: PARP cleavage, Western blot in A549 cells; assay type: cell-based, human; details: A549 cells, 0.01, 0.1 and 1 μM, 4 hours, 5% DCC-FBS; FIG. 2B
Protocol: FIG. 2B. […] A549 cells were treated in 5% DCC-FBS phenol-red free RPMI1640 with vehicle control (C) or increasing concentrations of JD140 at 0.01, 0.1 and 1 μM or 0.1 μM fulvestrant (F) for 4 hours. Western Blots were performed using anti-cleaved-PARP antibody (Cell Signaling Technology). RPL13A is shown as loading control. The Western blot is representative of 3 independent experiments.
We next assessed the effect of SERD compound 140 on the stimulation of NSCLC cell apoptosis by measurement of PARP cleavage at increasing drug doses (see FIG. 2B).
as §1

Q: With `C[C@]12C[C@H](Oc3ccc(N)cc3)[C@@H]3c4ccc(O)cc4CC[C@H]3[C@@H]1CC[C@@H]2O` [JD105, (8S,9S,11S,13S,14S,17S)-11-(4-aminophenoxy)-13-methyl-7,8,9,11,12,13,14,15,16,17-decahydro-6H-cyclopenta[a]phenanthrene-3,17-diol] as the compound, how does the “specific binding of [3H]estradiol-17β” value (estrogen receptor) read?
A: suppressed

Q: What about the “specific binding of [3H]estradiol-17β” value (estrogen receptor; listed as S15) of the same compound?
A: suppressed effectively

Q: `C[C@]12C[C@H](Oc3ccc(N)c(C(F)(F)F)c3)[C@@H]3c4ccc(O)cc4CC[C@H]3[C@@H]1CC[C@@H]2O` [JD128, (8S,9S,11S,13S,14S,17S)-11-(4-Amino-3-(trifluoromethyl)phenoxy)-13-methyl-7,8,9,11,12,13,14,15,16,17-decahydro-6H-cyclopenta[a]phenanthrene-3,17-diol] was tested. Which “cyclin D1 expression” value (cyclin D1) did it give?
A: down-regulates cyclin D1

Q: How did the PARP cleavage (cleaved PARP) turn out when `C[C@]12C[C@H](Oc3ccc(NC(=O)CCCCN4CCCCC4)c(F)c3)[C@@H]3c4ccc(O)cc4CC[C@H]3[C@@H]1CC[C@@H]2O` [JD140, N-(4-(((8S,9S,11S,13S,14S,17S)-3,17-Dihydroxy-13-methyl-7,8,9,11,12,13,14,15,16,17-deca-hydro-6H-cyclopenta[a]phenanthren-11-yl)oxy)-2-fluorophenyl)-5-(piperidin-1-yl)pentan-amide] was run?
A: enhanced PARP cleavage
